Assay type in all cases: in vivo, mouse
For series [1], the system named is T cell response in HLA-DR4 and HHDII/DP4 transgenic mice. Description: Screening of citrullinated NPM peptides for T cell (IFNy) responses in HLA-DR4 and HHDII/DP4 transgenic mice. The conditions noted are these: for T cell response: citrullinated NPM peptides, HLA-DR4 and HHDII/DP4 transgenic mice, IFNy ELISpot. Here is the method:
(§1) HLA-DR4 mice (Taconic, USA) and the HHDII/HLA-DP4 transgenic strain of mouse as described in patent WO2013/017545 A1 (EMMA repository, France) were used, aged between 8 and 12 weeks, and cared for by the staff at Nottingham Trent University. All work was carried out under a Home Office project licence. Peptides were dissolved in 10% dimethylformamide to 1 mg/mL and then emulsified (a series of dilutions) with the adjuvant CpG and MPLA 6 µg/mouse of each (Invivogen, UK). Peptides (25 µg/mouse) were injected subcutaneously at the base of the tail.
(§2) ELISpot assays were performed using murine IFNy capture and detection reagents according to the manufacturer’s instructions (Mabtech, Sweden). In brief, anti-IFNʏ antibody was coated onto wells of a 96-well Immobilin-P plate. Synthetic peptides (at a variety of concentrations) and 5×10^5 per well splenocytes were added to the wells of the plate in triplicate. LPS at 5 µg/mL was used as a positive control. Peptide pulsed target cells were added where relevant at 5×10^4 per well in triplicate and plates incubated for 40 hours at 37° C. After incubation, captured IFNy was detected by a biotinylated anti-IFNʏ antibody and developed with a streptavidin alkaline phosphatase and chromogenic substrate. […] For blocking studies, anti-CD4 blocking antibody (RPA-T4) and anti-CD8 blocking antibody (2.43) from Bioxcell were used at 20 µg/mL. Spots were analysed and counted using an automated plate reader (Cellular Technologies Ltd).
T cell responses to tumour associated epitopes are often weak or non-existent due to tolerance and T cell deletion within the thymus. The citrullinated NPM peptides were screened in HLA-DR4 and HHDII/DP4 transgenic mice for their ability to stimulate IFNy responses. Every peptide containing an arginine was selected and the arginine residue was replaced with citrulline (cit).
(§3) Screening was performed to identify potential citrullinated NPM epitopes that could generate an immune response in mice. Mice were immunised with pools of 4-6 human citrullinated peptides. […] Each pool was administered subcutaneously as a single immunisation given once a week for three weeks. Each peptide pool contained 25 µg of each peptide in combination with CpG/MPLA as an adjuvant. Mice were culled 7 days after the third immunisation, the immune response to each peptide within the immunising pool were assessed by ex vivo IFNy ELISpot (FIG. 2). We have previously shown that citrullinated peptides can induce responses in the transgenic DR4 mouse strain. Given that different mouse strains have different MHC repertoires, two different transgenic strains (DR4 and DP4) were used for screening.

Series [2] deals with splenocytes of HHDII/DP4 transgenic mice. Kind of series: Ex vivo IFNy ELISpot on splenocytes after peptide immunisation, HHDII/DP4 mice. The conditions noted are these: for IFNy immune response to peptide: HHDII/DP4 mice immunised with peptide pools, 25 µg each + CpG/MPLA, weekly x3, vs media only. Here is the method:
as §1, §2, §3
The core epitope was confirmed by immunising mice once weekly for three weeks with 25 µg of the NPM 261-280 cit or 266-285 cit peptide. HHDII/DP4 mice were immunised with the individual peptides whereas HLA-DR4 mice were immunised with a combination of NPM 261-280 cit and 266-285 cit, all given with CpG/MPLA. Mice were culled 7 days after the third immunisation.
To determine if the immune response to the NPM 266-285 peptide is specific to the citrullinated peptide and not the wild type (wt) version, mice were immunised with NPM 266-285 cit or NPM 266-285 wt peptides. HHDII/DP4 mice received 25 µg peptide (NPM 266-285 cit or NPM 266-285 wt) subcutaneously once a week for three weeks. Mice were culled 7 days after the third immunisation, the immune response to each peptide was assessed by ex vivo ELISpot (FIGS. 4A and 4B). […] In contrast, strong IFNy responses were detected in mice immunised with NPM 266-285 cit, these responses were significant when compared to the response to the NPM 266-285 wt peptide (p=0.0002) and the control (p=<0.0001). […]

In series [3] the test system is B16 HHDII/iDP4 tumour cells. The conditions noted are these: immunised tumour bearing mice. How it is done: as §1
For tumour challenge experiments, mice were challenged with 1×10^5 B16 HHDII/iDP4, B16F1HHDIIMHCIIKO or B16 HHDII/PAD2KOcDP4 cells subcutaneously on the right flank 3 days before primary immunisation (unless stated otherwise) and then immunised as described above. Tumour growth was monitored at 3-4 days intervals and mice humanely euthanised once tumour reached ≥10 mm in diameter.
The inventors had already established by Western blotting that the melanoma B16F1 cell lines constitutively express NPM and in vitro citrullination of NPM generates citrulline at position 277 (FIG. 5A and B). Next, the anti-tumour effect of NPM 266-285 cit peptide immunisation was assessed in vivo. The effect of immunisation with NPM 266-285 (cit and wt) on the growth of the mouse B16 melanoma cell line transfected with IFNy inducible human DP4 (iDP4) was assessed. […]

Series [4] deals with splenocytes of HLA-DR4 transgenic mice. Kind of series: Ex vivo IFNy ELISpot on splenocytes after peptide immunisation, HLA-DR4 mice. How it is done:
as §1
ELISpot assays were performed using murine IFNy capture and detection reagents according to the manufacturer’s instructions (Mabtech, Sweden). In brief, anti-IFNʏ antibody was coated onto wells of a 96-well Immobilin-P plate. […] After incubation, captured IFNy was detected by a biotinylated anti-IFNʏ antibody and developed with a streptavidin alkaline phosphatase and chromogenic substrate. […] Spots were analysed and counted using an automated plate reader (Cellular Technologies Ltd).
Screening was performed to identify potential citrullinated NPM epitopes that could generate an immune response in mice. […] Mice were culled 7 days after the third immunisation, the immune response to each peptide within the immunising pool were assessed by ex vivo IFNy ELISpot (FIG. 2). […]

Where a SMILES comes first, the peptide text is derived from it. [ ]: non-standard residue; d: D form. Cit = NC(=O)NCCC[C@H](N)C(=O)O

With EDEEEEDVKLLSISGK-cit-SAP [126-145], the T cell response result in series [1] is “No”.

As for AEEKAPVKKSI-cit-DTPAKNAQ [186-205], in series [2], the “IFNy immune response to peptide” value was “failed to induce an immune response”. The T cell response result in series [1] is on record as “No”.

Consider QLSL-cit-TVSLGAGAKDELHIV [41-60], for which the T cell response result in series [1] is “No”. As to F-cit-MTDQEAIQDLWQWcitKSL [276-294], the T cell response entry in series [1] was “No”. Turning to “LPKVEAKFINYVKNCF-cit-MTD [NPM 261-280 cit]”, in series [2], the “IFNy immune response to peptide” value is recorded as “significant immune responses”. The “IFNy response to peptide” value in series [2] (core epitope study, HHDII/DP4 mice immunised with individual peptide 25 µg weekly x3 + CpG/MPLA) was “Significant IFNʏ responses”. Further, the “Frequency of IFNy responses” value in series [1] (HHDII/DP4 and HLA-DR4 mice) is reported as “high frequency IFNy responses”. Besides, the T cell response entry in series [1] is recorded as “Yes”. Consider PPVVL-cit-LKCGSGPVHISGQH [96-115], for which the T cell response result in series [1] is reported as “No”. On the same count and under the same terms, in the case of FDDEEAEEKAPVKKSI-cit-DTP [181-200] it was “No”; in that of LSISGK-cit-SAPGGGSKVPQKK [136-155], “No”. As for FKVDNDENEHQLSL-cit-TVSLG [31-50], in series [1], the T cell response entry is on record as “No”. The same measure, in the same setting: in the case of MEDSMDMDMSPL-cit-PQNYLFG [1-20] it was “No”. As for `CC[C@H](C)[C@H](NC(=O)[C@H](C)NC(=O)[C@H](CCC(=O)O)NC(=O)[C@H](CCC(N)=O)NC(=O)[C@H](CC(=O)O)NC(=O)[C@@H](NC(=O)[C@H](CCSC)NC(=O)[C@H](CCCNC(=N)N)NC(=O)[C@H](Cc1ccccc1)NC(=O)[C@H](CS)NC(=O)[C@H](CC(N)=O)NC(=O)[C@H](CCCCN)NC(=O)[C@@H](NC(=O)[C@H](Cc1ccc(O)cc1)NC(=O)[C@H](CC(N)=O)NC(=O)[C@@H](NC(=O)[C@H](Cc1ccccc1)NC(=O)[C@H](CCCCN)NC(=O)[C@H](C)N)[C@@H](C)CC)C(C)C)[C@@H](C)O)C(=O)N[C@@H](CCC(N)=O)C(=O)O` [NPM 266-285 wt, reference compound] (H-AKFINYVKNCFRMTDQEAIQ-OH), the Associated toxicity entry in series [3] was “no associated toxicity”. As to EDVKLLSISGK-cit-SAPGGGSK [131-150], the T cell response entry in series [1] is “No”. Consider TVSLGGFEITPPVVL-cit-LKCG [86-105], for which the T cell response entry in series [1] is “No”. `CC[C@H](C)[C@H](NC(=O)[C@H](C)NC(=O)[C@H](CCC(=O)O)NC(=O)[C@H](CCC(N)=O)NC(=O)[C@H](CC(=O)O)NC(=O)[C@@H](NC(=O)[C@H](CCSC)NC(=O)[C@H](CCCNC(N)=O)NC(=O)[C@H](Cc1ccccc1)NC(=O)[C@H](CS)NC(=O)[C@H](CC(N)=O)NC(=O)[C@H](CCCCN)NC(=O)[C@@H](NC(=O)[C@H](Cc1ccc(O)cc1)NC(=O)[C@H](CC(N)=O)NC(=O)[C@@H](NC(=O)[C@H](Cc1ccccc1)NC(=O)[C@H](CCCCN)NC(=O)[C@H](C)N)[C@@H](C)CC)C(C)C)[C@@H](C)O)C(=O)N[C@@H](CCC(N)=O)C(=O)O` [NPM 266-285 cit, AKFINYVKNCF-cit-MTDQEAIQ] (H-AKFINYVKNCF[Cit]MTDQEAIQ-OH): in series [3], the Associated toxicity entry is recorded as “no associated toxicity”. On to YVKNCF-cit-MTDQEAI QDLWQW [271-290], for which the T cell response entry in series [1] is reported as “No”. Regarding PVKKSI-cit-DTPAKNAQKSNQN [191-210], the “IFNy immune response to peptide” value in series [2] is given as “failed to induce an immune response”. In addition, the T cell response entry in series [1] was “No”.

Turning to DENEHQLSL-cit-TVSLGAGAKD [36-55], the T cell response result in series [1] was “No”. Same read-out and setting: in the case of PSSTP-cit-SKGQESFKKQEKTP [216-235] it was “No”; in that of DMDMSPL-cit-PQNYLFGCELKA [6-25], “No”. With AKFINYVKNCF-cit-MTD [NPM 266-280 cit], the “Response to core peptide compared with NPM 266-285 cit” value in series [4] is given as “significant difference”. Moreover, in series [2] (HHDII/DP4 transgenic mice, IFNy ELISpot), the “Response to core peptide compared with NPM 261-280 cit or NPM 266-285 cit” value is “no significant difference”. For the same molecule, the T cell response entry in series [1] is given as “Yes”. Consider KSNQNGKDSKPSSTP-cit-SKGQ [206-225], for which, in series [1], the T cell response result is recorded as “No”. Still for that read-out and setting: in the case of GFETPPVVL-cit-LKCGSGPVH [91-110] it was “No”.

Turning to GKDSKPSSTP-cit-SKGQESFKK [211-230], the T cell response result in series [1] is recorded as “No”.

These data come from US20230173047A1, “CITRULLINATED NUCLEOPHOSMIN PEPTIDES AS CANCER VACCINES” (SCANCELL LIMITED, priority 2020, published 2023).
